Data taken from patent US8183374B2, “Piperidine and piperazine derivatives” (M's Science Corporation, priority 2006, dated 2012).

Legend:
rats = settings: microinjection/injection in rats; cited from earlier work
σ1 receptors = biological target: T1, σ1 receptors (Homo sapiens, UniProt Q99720); assay: σ1 receptor binding assay; settings: HEK-293 cell membranes, 10 nM (+)-[3H]-pentazocine, 120 min at 37° C.
T1 construct: endogenous in cells; host or cells: HEK-293 cell membranes
Method: Sigma-1 (σ1) and sigma-2 (σ2) receptor binding assays are carried out in membranes from HEK-293 (Human Embryonic Kidney) cells.
Confluent HEK-293 cells are harvested in PBS/5 mM EDTA. They are centrifuged at 2000 rpm for 5 min and then washed two times in PBS. Cells are homogenized in 20 mM Tris-HCL (pH=7.5) containing 5 mM EDTA, 0.5 mM PMSF and 0.5 μg/mL leupeptin using a Dounce homogenizer and sonicated for 5 minutes.
Nuclear debris and intact cells are removed by centrifugation at 3000 rpm for 10 minutes at 4° C. […]
Proteins are determined using the Bio Rad Protein Assay Dye Reagent and the membranes are aliquoted and frozen at −80° C. […]
Total binding is determined by incubating 50 μg of HEK-293 cell membranes with 10 nM (+)−[^3H]-pentazocine (Perkin-Elmer, 35 Ci/mmol) and assay buffer (50 mM Tris-HCl, pH=8.3) in a total volume of 200 μl. Non specific binding is determined in the presence of 10 μM unlabeled pentazocine. […] The filters are washed three times and the membrane-bound radioactivity is determined in a Microbeta scintillation counter. […]
Specific binding is determined by subtraction of non specific binding from total binding. […]

T1 sequence (Q99720 whole entry): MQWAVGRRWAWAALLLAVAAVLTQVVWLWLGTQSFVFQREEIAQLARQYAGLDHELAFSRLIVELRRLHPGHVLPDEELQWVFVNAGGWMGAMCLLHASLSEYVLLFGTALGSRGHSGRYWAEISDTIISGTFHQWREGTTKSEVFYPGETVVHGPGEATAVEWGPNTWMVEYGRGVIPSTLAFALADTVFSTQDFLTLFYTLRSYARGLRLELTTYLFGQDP

Row | SMILES | neck dystonia in rats (rats) | IC50 in the σ1 receptor binding assay (σ1 receptors)
1 | Cc1ccccc1NC(=N)Nc1ccccc1C [DTG, 1,3-di-2-tolyl-guanidine] | induced neck dystonia | –
2 | COc1cc(CC(=O)N2CCN(CCOc3ccccc3F)CC2)cc(OC)c1OC.Cl [Example 41, 1-{4-[2-(2-Fluorophenoxy)Ethyl]Piperazin-1-yl}-2-(3,4,5-Trimethoxy-Phenyl)Ethanone Hydrochloride] | – | a little less active
3 | COc1ccc(CCN2CCN(CCCc3ccccc3)CC2)cc1OC [SA-4503, 1-[2-(3,4-dimethoxyphenyl)ethyl]-4-(3-phenylpropyl)piperazine] | had no effect | –
4 | COc1cc(CCC(=O)N2CCN(CCOc3ccc(F)cc3)CC2)cc(OC)c1OC.Cl [Example 35, 1-{4-[2-(4-Fluorophenoxy)Ethyl]Piperazin-1-yl}-3-(3,4,5-Trimethoxy-Phenyl)Propan-1-One Hydrochloride] | – | a little less active
